Where two headings read alike, the source gives them in different places.
What was measured:
hCAII [1] = target: T1, hCAII (Homo sapiens, UniProt P00918); assay: colorimetric p-nitrophenyl acetate hCAII activity assay; format: biochemical
T1 construct: made in house; host or cells: Escherichia coli BL21(DE3), pACA plasmid (gift from Carol A. Fierke)
Procedure: To verify that the p-sulfamoyl benzamide MBP retained its binding following ligation with the linker and bulky recruiting group moieties, the inhibition activity of each degrader candidate was determined using a colorimetric p-nitrophenol acetate hCAII activity assay.[46] In short, recombinantly expressed hCAII was preincubated with the degrader candidate before the addition of p-nitrophenyl acetate, a substrate that upon enzymatic cleavage leads to acetic acid and p-nitrophenolate.
Recombinant hCAII was expressed and purified according to the protocol reported in the Supporting Information. […] Wells were prepared to a final volume of 100 μL per well, including buffer (50 mM HEPES, pH 8.0), enzyme (hCAII, 40 nM), inhibitor (varying concentrations), and substrate (p-nitrophenyl acetate, 500 μM). Inhibitors and protein were preincubated for 10 min at rt, and the substrate was added to the reaction mixture immediately before reading. […] The rate of absorbance for each replicate was corrected for substrate autohydrolysis and inherent inhibitor absorbance by subtracting the rate of absorbance from a blank sample lacking enzyme but containing the inhibitor and substrate. Samples lacking inhibitor but containing enzyme and substrate were used to define 100% hCAII activity. Samples lacking inhibitor and enzyme were used to define 0% hCAII activity. IC50 was determined using non-linear regression with a variable slope on the GraphPad Prism software.

hCAII [2] = target: T2, hCAII (Homo sapiens, UniProt P00918+Q96SW2); assay: nine-point dose response hCAII degradation assay in HEK293 cells, western blot; format: cell-based; settings: 24 h; for Dmax: HEK293, HEK293 cells, read-out: DMax (maximum percentage of degradation); for hook effect (attenuation of target degradation at high concentration): doses up to 15 μM
T2 construct: HEK293 cells, a line known to abundantly express hCAII; endogenous in cells; host or cells: HEK293
Procedure: Three biological replicates of HEK293 cells were dosed in parallel with 4 or 5 at concentrations ranging from 5 pM to 15 μM for 24 h prior to lysis. […] This phenomenon can be attributed to the binary complexes of degrader-POI and degrader-E3 ligase outcompeting the POI-degrader-E3 ligase ternary complex at high degrader concentrations. […] The half-maximal degradation (DC50 value reported as a 95% confidence interval) and maximum percentage of degradation (DMax) of each active degrader were determined using a least squares sigmoidal fitting of the degradation activity of dosing concentrations below the observable “hook effect” (Figure 2B).
Figure 3 Dose-dependent degradation of hCAII by 4 and 5. (A) Western blot images of HEK293 cells dosed for 24 h with degrader 4 (left) or 5 (right) at concentrations of 5 pM to 15 μM. (B) Dose response curves of hCAII abundance as a percent of DMSO vehicle for 4 (left) or 5 (right). Band intensities of blots from three biological replicates were quantified using ImageJ software (Experimental Section). Data were normalized to a vehicle-treated (DMSO) group and plotted as a sigmoidal curve. Nonlinear fitting of log([inhibitor]) vs response (three parameters) was generated for 4 with R^2 = 0.955 and 5 with R^2 = 0.855 in GraphPad Prism. Points marked with an asterisk indicate only two biological replicates. In all other cases, error bars represent the standard deviation of triplicate experiments. Full images of the western blots are provided in the Supporting Information (Figures S1 and S3).
Given the inactivity of 1–3 and increased potency of 4 over 5, a 12-atom linker appeared to be a preferred length for favorable ternary complex formation in the heterobifunctional degraders tested. To further examine the role of linker length and composition, we explored hydrocarbon linkers for their ability to improve degrader lipophilicity and membrane permeability without impacting the favorable ternary complex formation. […] Western blot analysis and quantification of three biological replicates identified the degradation of hCAII at concentrations of 11 as low as 50 pM and achieved near-complete hCAII degradation at concentrations of 5 nM (Figures 5A and S3).
After reaching 90% confluency, HEK293 cells were trypsinized, counted, and plated with 2 mL media at 2 × 10^6 cells per well on a tissue-culture-treated, 6-well plate. At the appropriate number of hours before reaching ∼90% confluency, cells were treated with DMSO solutions of the appropriate compounds (final concentration 0.5% DMSO per well). Upon reaching 90% confluency, typically 72 h, culture media were removed and the cells were washed with cold Dulbecco’s phosphate-buffered saline (DPBS). Lysis buffer, composed of cell lysis buffer (Cell Signaling Technology, 9803), protease inhibitor cocktail (Cell Signaling Technology, 5872), and 1 mM phenylmethylsulfonylfluoride, was added to each well, and the plates were rocked at 4 °C for 20 min. Cells were then scraped from the bottom of the plates, and the supernatant was collected after spinning down at 14,000g at 4 °C for 10 min and frozen at −80 °C. Lysates were thawed on ice, and the total protein concentration was measured using a Pierce bicinchoninic acid protein assay (Thermo Fisher Scientific, 23225). […] Following heating at 98 °C for 5 min and cooling to room temperature, the prepared samples were electrophoretically separated on a 4–20% TGX gel (Bio-Rad, 4568095) and transferred to a PVDF membrane (Amersham Hybond P 0.45 μm, 106000019) in a tris-glycine transfer buffer (Thermo Fisher Scientific, LC3675) with a 20% final MeOH concentration. The membrane was rocked at 4 °C with fluorescent blocking buffer (Thermo Fisher Scientific, 37565) for 1 h and then incubated with primary antibodies (hCAII Rabbit mAb, 1:1000 and β-actin Rabbit pAb, 1:2000 in fluorescent blocking buffer) at 4 °C overnight. […]

[3] = enzyme concentration of 40 nM, read-out: IC50, below the detection limit of the assay
[4] = recombinant hCAII 40 nM, p-nitrophenyl acetate 500 μM, pH 8.0, 95% confidence interval, read-out: IC50 (nM), hCAII inhibition activity (Table S1)

NS(=O)(=O)c1ccc(C(=O)NCCCOCCCCOCCCNc2cccc3c2C(=O)N(C2CCC(=O)NC2=O)C3=O)cc1 (stereo not drawn) [Compound 4, N-(3-(4-(3-((2-(2,6-Dioxopiperidin-3-yl)-1,3-dioxoisoindolin-4-yl)amino)propoxy)butoxy)propyl)-4-sulfamoylbenzamide]
IC50 (hCAII [1]; [3]): ≤ 20 nM | IC50 (hCAII [1]; [4]): ≤ 20 nM | Dmax (hCAII [2]): 96% | concentration of maximum degradation (hCAII [2]; HEK293 cells): 500 nM | DC50 (hCAII [2]; HEK293 cells, 5 pM to 15 μM, 95% confidence interval, read-out: DC50 (half-maximal degradation)): 5 ± 3 nM | hook effect (attenuation of target degradation at high concentration) (hCAII [2]; HEK293 cells): hook effect

NS(=O)(=O)c1ccc(C(=O)NCCCOCCOCCOCCCNc2cccc3c2C(=O)N(C2CCC(=O)NC2=O)C3=O)cc1 (stereo not drawn) [Compound 5, N-(3-(2-(2-(3-((2-(2,6-Dioxopiperidin-3-yl)-1,3-dioxoisoindolin-4-yl)amino)propoxy)ethoxy)ethoxy)propyl)-4-sulfamoylbenzamide]
IC50 (hCAII [1]; [3]): ≤ 20 nM | IC50 (hCAII [1]; [4]): ≤ 20 nM | Dmax (hCAII [2]): 86% | DMax (maximum percentage of degradation) (hCAII [2]; HEK293 cells): 96% | concentration of maximum degradation (hCAII [2]; HEK293 cells): 5000 nM | hook effect (attenuation of target degradation at high concentration) (hCAII [2]; HEK293 cells): hook effect
